Calls of active or inactive are those of the source. How the calls were made is not given here.
System: rodent carcinogenicity bioassays, tumor incidence
Assay: CCRIS carcinogenicity studies
Summary of the method: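 NCI-built, expert-reviewed records of carcinogenicity and related test outcomes (mutagenicity, tumor promotion/inhibition) compiled from published and report sources, historical span 1985-2011, not updated.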

Measured: carcinogen call

C=CC#N
equivocal: Species: MOUSE, Strain/Sex: B6C3F1/FEMALE, Route: GAVAGE, Dose: 0, 2.5, 10, 20 MG/KG 5D/WK FOR 104-105 WK (STUDY DURATION: 104-105 WK), Dose: 0, 2.5, 10, 20 MG/KG 5D/WK FOR 104-105 WK (STUDY DURATION: 104-105 WK), Tumor Site: Type of Lesion: OVARY: MALIGNANT GRANULOSA CELL TUMOR, LUNG (ALVEOLAR/BRONCHIOLAR): ADENOMA OR CARCINOMA
active: Species: HUMAN, Route: INHALATION, Tumor Site: Type of Lesion: LUNG, COLON active; positive | Species: MOUSE, Strain/Sex: B6C3F1/FEMALE, Route: GAVAGE, Dose: 0, 2.5, 10, 20 MG/KG 5D/WK FOR 104-105 WK (STUDY DURATION: 104-105 WK), Dose: 0, 2.5, 10, 20 MG/KG 5D/WK FOR 104-105 WK (STUDY DURATION: 104-105 WK), Tumor Site: Type of Lesion: FORESTOMACH: SQUAMOUS CELL PAPILLOMA, SQUAMOUS CELL CARCINOMA, SQUAMOUS CELL PAPILLOMA OR CARCINOMA, HARDERIAN GLAND: AD active; positive | Species: MOUSE, Strain/Sex: B6C3F1/FEMALE, Route: GAVAGE, Dose: 0, 2.5, 10, 20 MG/KG/D 5 D/WK FOR 105 WK (STUDY DURATION: 105 WK), Dose: 0, 2.5, 10, 20 MG/KG/D 5 D/WK FOR 105 WK (STUDY DURATION: 105 WK), Tumor Site: Type of Lesion: FORESTOMACH: SQUAMOUS CELL PAPILLOMA, SQUAMOUS CELL CARCINOMA, SQUAMOUS CELL PAPILLOMA OR CARCINOMA, EPITHELIAL HYPERPLA active; positive | Species: MOUSE, Strain/Sex: B6C3F1/MALE, Route: GAVAGE, Dose: 0, 2.5, 10, 20 MG/KG 5D/WK FOR 104-105 WK (STUDY DURATION: 104-105 WK), Dose: 0, 2.5, 10, 20 MG/KG 5D/WK FOR 104-105 WK (STUDY DURATION: 104-105 WK), Tumor Site: Type of Lesion: FORESTOMACH: SQUAMOUS CELL PAPILLOMA, SQUAMOUS CELL CARCINOMA, SQUAMOUS CELL PAPILLOMA OR CARCINOMA, HARDERIAN GLAND: AD active; positive | Species: MOUSE, Strain/Sex: B6C3F1/MALE, Route: GAVAGE, Dose: 0, 2.5, 10, 20 MG/KG/D 5 D/WK FOR 105 WK (STUDY DURATION: 105 WK), Dose: 0, 2.5, 10, 20 MG/KG/D 5 D/WK FOR 105 WK (STUDY DURATION: 105 WK), Tumor Site: Type of Lesion: FORESTOMACH: SQUAMOUS CELL PAPILLOMA, SQUAMOUS CELL CARCINOMA, SQUAMOUS CELL PAPILLOMA OR CARCINOMA, EPITHELIAL HYPERPLA active; positive | Species: RAT, Route: INHALATION, Tumor Site: Type of Lesion: MAMMARY GLAND, NERVOUS SYSTEM (CENTRAL), EAR (ZYMBAL GLAND), Tumor Site: Type of Lesion: MAMMARY GLAND, NERVOUS SYSTEM (CENTRAL), EAR (ZYMBAL GLAND) active; positive | Species: RAT, Route: ORAL, Tumor Site: Type of Lesion: FORESTOMACH, STOMACH, NERVOUS SYSTEM (CENTRAL), EAR (ZYMBAL GLAND), Tumor Site: Type of Lesion: FORESTOMACH, STOMACH, NERVOUS SYSTEM (CENTRAL), EAR (ZYMBAL GLAND) active; positive | Species: RAT, Strain/Sex: F344/FEMALE, Route: ORAL, Dose: 0, 1, 3, 10, 30, 100 PPM IN DRINKING WATER FOR LIFETIME (STUDY DURATION: 26 MO), Dose: 0, 1, 3, 10, 30, 100 PPM IN DRINKING WATER FOR LIFETIME (STUDY DURATION: 26 MO), Tumor Site: Type of Lesion: BRAIN: ASTROCYTOMA, ZYMBAL'S GLAND: SQUAMOUS CELL PAPILLOMA, ADENOMA/CARCINOMA, MAMMARY GLAND: FIBROADENOMA, FORESTOMAC, Tumor Site: Type of Lesion: BRAIN: ASTROCYTOMA, ZYMBAL'S GLAND: SQUAMOUS CELL PAPILLOMA, ADENOMA/CARCINOMA, MAMMARY GLAND: FIBROADENOMA, FORESTOMAC active; positive | Species: RAT, Strain/Sex: F344/MALE, Route: ORAL, Dose: 0, 1, 3, 10, 30, 100 PPM IN DRINKING WATER FOR LIFETIME (STUDY DURATION: 26 MO), Dose: 0, 1, 3, 10, 30, 100 PPM IN DRINKING WATER FOR LIFETIME (STUDY DURATION: 26 MO), Tumor Site: Type of Lesion: BRAIN: ASTROCYTOMA, SPINAL CORD: ASTROCYTOMA, ZYMBAL'S GLAND: SQUAMOUS CELL PAPILLOMA, ADENOMA/CARCINOMA, FORESTOMACH: S, Tumor Site: Type of Lesion: BRAIN: ASTROCYTOMA, SPINAL CORD: ASTROCYTOMA, ZYMBAL'S GLAND: SQUAMOUS CELL PAPILLOMA, ADENOMA/CARCINOMA, FORESTOMACH: S active; positive | Species: RAT, Strain/Sex: SPRAGUE-DAWLEY/FEMALE, Route: GAVAGE, Dose: 0, 0.1, 10 MG/KG/D 7D/WK FOR 20 MO (STUDY DURATION: 20 MO), Dose: 0, 0.1, 10 MG/KG/D 7D/WK FOR 20 MO (STUDY DURATION: 20 MO), Tumor Site: Type of Lesion: BRAIN: ASTROCYTOMA, ZYMBAL'S GLAND/EAR CANAL: CARCINOMA, FORESTOMACH: SQUAMOUS CELL PAPILLOMA/PAPILLOMA, SQUAMOUS CELL C, Tumor Site: Type of Lesion: BRAIN: ASTROCYTOMA, ZYMBAL'S GLAND/EAR CANAL: CARCINOMA, FORESTOMACH: SQUAMOUS CELL PAPILLOMA/PAPILLOMA, SQUAMOUS CELL C active; positive | Species: RAT, Strain/Sex: SPRAGUE-DAWLEY/FEMALE, Route: INHALATION, Dose: 0, 60 PPM 4 HR/D 5 D/WK FOR 7 WK THEN 7 HR/D 5 D/WK FOR 97 WK ADMINISTRATION STARTED WITH EMBRYOS ON DAY 12 OF GESTATION, Tumor Site: Type of Lesion: MAMMARY GLAND: TUMORS, LIVER: ANGIOSARCOMA, BRAIN: GLIOMA, Tumor Site: Type of Lesion: MAMMARY GLAND: TUMORS, LIVER: ANGIOSARCOMA, BRAIN: GLIOMA active; positive | Species: RAT, Strain/Sex: SPRAGUE-DAWLEY/FEMALE, Route: ORAL, Dose: 0, 1, 100 PPM IN DRINKING WATER FOR 22 MO (STUDY DURATION: 20 MO), Dose: 0, 1, 100 PPM IN DRINKING WATER FOR 22 MO (STUDY DURATION: 20 MO), Tumor Site: Type of Lesion: BRAIN: ASTROCYTOMA, ZYMBAL'S GLAND/EAR CANAL: ADENOMA OR CARCINOMA, FORESTOMACH: SQUAMOUS CELL PAPILLOMA/PAPILLOMA OR SQ, Tumor Site: Type of Lesion: BRAIN: ASTROCYTOMA, ZYMBAL'S GLAND/EAR CANAL: ADENOMA OR CARCINOMA, FORESTOMACH: SQUAMOUS CELL PAPILLOMA/PAPILLOMA OR SQ active; positive | Species: RAT, Strain/Sex: SPRAGUE-DAWLEY/MALE, Route: GAVAGE, Dose: 0, 0.1, 10 MG/KG/D 7D/WK FOR 20 MO (STUDY DURATION: 20 MO), Dose: 0, 0.1, 10 MG/KG/D 7D/WK FOR 20 MO (STUDY DURATION: 20 MO), Tumor Site: Type of Lesion: BRAIN: ASTROCYTOMA, ZYMBAL'S GLAND/EAR CANAL: CARCINOMA, FORESTOMACH: SQUAMOUS CELL PAPILLOMA/PAPILLOMA, SQUAMOUS CELL C, Tumor Site: Type of Lesion: BRAIN: ASTROCYTOMA, ZYMBAL'S GLAND/EAR CANAL: CARCINOMA, FORESTOMACH: SQUAMOUS CELL PAPILLOMA/PAPILLOMA, SQUAMOUS CELL C active; positive | Species: RAT, Strain/Sex: SPRAGUE-DAWLEY/MALE, Route: INHALATION, Dose: 0, 60 PPM 4 HR/D 5 D/WK FOR 7 WK THEN 7 HR/D 5 D/WK FOR 97 WK ADMINISTRATION STARTED WITH EMBRYOS ON DAY 12 OF GESTATION, Tumor Site: Type of Lesion: ZYMBAL GLAND: CARCINOMA, LIVER: HEPATOMA, BRAIN: GLIOMA, Tumor Site: Type of Lesion: ZYMBAL GLAND: CARCINOMA, LIVER: HEPATOMA, BRAIN: GLIOMA active; positive | Species: RAT, Strain/Sex: SPRAGUE-DAWLEY/MALE, Route: ORAL, Dose: 0, 1, 100 PPM IN DRINKING WATER FOR 22 MO (STUDY DURATION: 20 MO), Dose: 0, 1, 100 PPM IN DRINKING WATER FOR 22 MO (STUDY DURATION: 20 MO), Tumor Site: Type of Lesion: BRAIN: ASTROCYTOMA, ZYMBAL'S GLAND/EAR CANAL: ADENOMA OR CARCINOMA, FORESTOMACH: SQUAMOUS CELL PAPILLOMA/PAPILLOMA OR SQ, Tumor Site: Type of Lesion: BRAIN: ASTROCYTOMA, ZYMBAL'S GLAND/EAR CANAL: ADENOMA OR CARCINOMA, FORESTOMACH: SQUAMOUS CELL PAPILLOMA/PAPILLOMA OR SQ active; positive | Species: RAT, Strain/Sex: SPRAGUE-DAWLEY/MALE, Route: ORAL, Dose: 0, 20, 100, 500 PPM IN DRINKING WATER FOR DURATION OF STUDY (STUDY DURATION: 2 YR), Dose: 0, 20, 100, 500 PPM IN DRINKING WATER FOR DURATION OF STUDY (STUDY DURATION: 2 YR), Tumor Site: Type of Lesion: ZYMBAL'S GLAND: TUMOR active; positive | Species: Rat, Strain/Sex: Sprague Dawley/Female (80/group, Controls; 48/group, Experimental), Route: Oral, Dose: 0, 35, 100, 300 ppm (0; 4.4; 10.8; 25.0 mg/kg) in drinking water for 2 yr, Dose: 0, 35, 100, 300 ppm (0; 4.4; 10.8; 25.0 mg/kg) in drinking water for 2 yr, Tumor Site: Type of Lesion: Nervous system (brain and spinal cord): Combined focal or multifocal glial cell proliferation and/or astrocytoma (1/80 active; positive | Species: Rat, Strain/Sex: Sprague Dawley/Male (80/group, Controls; 48/group, Experimental), Route: Oral, Dose: 0, 35, 100, 300 ppm (0; 3.4; 8.5; 21.3 mg/kg in drinking water for 2 yr), Dose: 0, 35, 100, 300 ppm (0; 3.4; 8.5; 21.3 mg/kg in drinking water for 2 yr), Tumor Site: Type of Lesion: Nervous system (brain and spinal cord): Combined focal or multifocal glial cell proliferation and/or astrocytoma (1/80 active; positive
inactive: Species: RAT, Strain/Sex: SPRAGUE-DAWLEY/FEMALE, Route: GAVAGE, Dose: 0, 5 MG/KG BW IN OLIVE OIL 3/WK FOR 52 WK (STUDY DURATION: LIFETIME), Tumor Site: Type of Lesion: [BRAIN WAS ONLY SITE EVALUATED] inactive; negative | Species: RAT, Strain/Sex: SPRAGUE-DAWLEY/FEMALE, Route: GAVAGE, Dose: 0, 5 MG/KG IN OLIVE OIL 1/D 3 D/WK FOR 52 WK (STUDY DURATION: LIFETIME) inactive; negative | Species: RAT, Strain/Sex: SPRAGUE-DAWLEY/FEMALE, Route: INHALATION, Dose: 0, 60 PPM 4 HR/D 5 D/WK FOR 7 WK THEN 7 HR/D 5 D/WK FOR 8 WK ADMINISTRATION STARTED WITH EMBRYOS ON 12TH DAY OF GESTATIO inactive; negative | Species: RAT, Strain/Sex: SPRAGUE-DAWLEY/MALE, Route: GAVAGE, Dose: 0, 5 MG/KG BW IN OLIVE OIL 3/WK FOR 52 WK (STUDY DURATION: LIFETIME), Tumor Site: Type of Lesion: [BRAIN WAS ONLY SITE EVALUATED] inactive; negative | Species: RAT, Strain/Sex: SPRAGUE-DAWLEY/MALE, Route: GAVAGE, Dose: 0, 5 MG/KG IN OLIVE OIL 1/D 3 D/WK FOR 52 WK (STUDY DURATION: LIFETIME) inactive; negative | Species: RAT, Strain/Sex: SPRAGUE-DAWLEY/MALE, Route: INHALATION, Dose: 0, 60 PPM 4 HR/D 5 D/WK FOR 7 WK THEN 7 HR/D 5 D/WK FOR 8 WK ADMINISTRATION STARTED WITH EMBRYOS ON 12TH DAY OF GESTATIO inactive; negative

Source: PubChem BioAssay AID1259411 (Chemical Carcinogenesis Research Information System (CCRIS), 2018)
